In PubChem BioAssay (NCI):
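Compound exposure: 48 hours, 5 concentrations, 96-well plates. GI50 is the concentration that inhibits growth by half. TGI denotes the concentration required for complete inhibition of growth.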

Tests used:
Assay in all cases: NCI anticancer screen, dose series, 48 h
CAKI-1 renal = system: CAKI-1 renal
MALME-3M melanoma = system: MALME-3M melanoma
UO-31 renal = system: UO-31 renal
HCT-15 colon = system: HCT-15 colon
SK-MEL-28 melanoma = system: SK-MEL-28 melanoma
RXF 393 renal = system: RXF 393 renal
HOP-92 NSCLC = system: HOP-92 NSCLC
OVCAR-5 ovarian = system: OVCAR-5 ovarian
HL-60(TB) leukemia = system: HL-60(TB) leukemia
ACHN renal = system: ACHN renal
A498 renal = system: A498 renal
SNB-75 CNS = system: SNB-75 CNS
SF-295 CNS = system: SF-295 CNS
MOLT-4 leukemia = system: MOLT-4 leukemia
MCF7 breast = system: MCF7 breast
DU-145 prostate = system: DU-145 prostate
SF-539 CNS = system: SF-539 CNS
HCT-116 colon = system: HCT-116 colon
HCC-2998 colon = system: HCC-2998 colon
TK-10 renal = system: TK-10 renal
HOP-62 NSCLC = system: HOP-62 NSCLC
NCI/ADR-RES ovarian = system: NCI/ADR-RES ovarian
T-47D breast = system: T-47D breast
IGROV1 ovarian = system: IGROV1 ovarian
786-0 renal = system: 786-0 renal
MDA-MB-435 = system: MDA-MB-435
HS 578T breast = system: HS 578T breast
NCI-H23 lung = system: NCI-H23 lung
SK-OV-3 ovarian = system: SK-OV-3 ovarian
SN12C renal = system: SN12C renal
LOX IMVI melanoma = system: LOX IMVI melanoma
K-562 leukemia = system: K-562 leukemia
M14 melanoma = system: M14 melanoma
PC-3 prostate = system: PC-3 prostate
CCRF-CEM leukemia = system: CCRF-CEM leukemia
NCI-H460 lung = system: NCI-H460 lung
SF-268 CNS = system: SF-268 CNS
UACC-62 melanoma = system: UACC-62 melanoma

Q: How did the GI50 (CAKI-1 renal) turn out when NC(N)=Nc1ccc(Oc2cccc(Nc3ccc(Cl)c(C(F)(F)F)c3)c2)cc1 was run?
A: 1730 nM

Q: And the TGI (CAKI-1 renal)?
A: 3570 nM

Q: And the GI50 (MALME-3M melanoma)?
A: 1720 nM

Q: What about the TGI (MALME-3M melanoma) of the same molecule?
A: 3680 nM

Q: And the GI50 (UO-31 renal)?
A: 2950 nM

Q: What about the TGI (UO-31 renal) of the same molecule?
A: 11700 nM

Q: And the GI50 (HCT-15 colon)?
A: 1920 nM

Q: What about the TGI (HCT-15 colon) of the same molecule?
A: 4360 nM

Q: What about the GI50 (SK-MEL-28 melanoma) of the same molecule?
A: 1740 nM

Q: What about the TGI (SK-MEL-28 melanoma) of the same molecule?
A: 3160 nM

Q: What about the GI50 (RXF 393 renal) of the same molecule?
A: 1620 nM

Q: What about the TGI (RXF 393 renal) of the same molecule?
A: 3050 nM

Q: And the GI50 (HOP-92 NSCLC)?
A: 1290 nM

Q: What about the TGI (HOP-92 NSCLC) of the same molecule?
A: 2650 nM

Q: What about the GI50 (OVCAR-5 ovarian) of the same molecule?
A: 1560 nM

Q: And the TGI (OVCAR-5 ovarian)?
A: 2940 nM

Q: And the GI50 (HL-60(TB) leukemia)?
A: 1990 nM

Q: And the TGI (HL-60(TB) leukemia)?
A: 4290 nM

Q: What about the GI50 (ACHN renal) of the same molecule?
A: 2790 nM

Q: And the TGI (ACHN renal)?
A: 8470 nM

Q: What about the GI50 (A498 renal) of the same molecule?
A: 1640 nM

Q: And the TGI (A498 renal)?
A: 3200 nM

Q: What about the GI50 (SNB-75 CNS) of the same molecule?
A: 1200 nM

Q: And the TGI (SNB-75 CNS)?
A: 2500 nM

Q: What about the GI50 (SF-295 CNS) of the same molecule?
A: 1660 nM

Q: And the TGI (SF-295 CNS)?
A: 3210 nM

Q: And the GI50 (MOLT-4 leukemia)?
A: 1950 nM

Q: And the TGI (MOLT-4 leukemia)?
A: 4570 nM

Q: What about the GI50 (MCF7 breast) of the same molecule?
A: 1720 nM

Q: What about the TGI (MCF7 breast) of the same molecule?
A: 3480 nM

Q: What about the GI50 (DU-145 prostate) of the same molecule?
A: 1980 nM

Q: And the TGI (DU-145 prostate)?
A: 3720 nM

Q: What about the GI50 (SF-539 CNS) of the same molecule?
A: 1710 nM

Q: What about the TGI (SF-539 CNS) of the same molecule?
A: 3140 nM

Q: What about the GI50 (HCT-116 colon) of the same molecule?
A: 1620 nM

Q: And the TGI (HCT-116 colon)?
A: 3130 nM

Q: What about the GI50 (HCC-2998 colon) of the same molecule?
A: 1750 nM

Q: What about the TGI (HCC-2998 colon) of the same molecule?
A: 3240 nM

Q: What about the GI50 (TK-10 renal) of the same molecule?
A: 1940 nM

Q: And the TGI (TK-10 renal)?
A: 4750 nM

Q: And the GI50 (HOP-62 NSCLC)?
A: 1600 nM

Q: And the TGI (HOP-62 NSCLC)?
A: 3160 nM

Q: What about the GI50 (NCI/ADR-RES ovarian) of the same molecule?
A: 14800 nM

Q: And the TGI (NCI/ADR-RES ovarian)?
A: 34300 nM

Q: What about the GI50 (T-47D breast) of the same molecule?
A: 1750 nM

Q: What about the TGI (T-47D breast) of the same molecule?
A: 3950 nM

Q: And the GI50 (IGROV1 ovarian)?
A: 1270 nM

Q: What about the TGI (IGROV1 ovarian) of the same molecule?
A: 2740 nM

Q: What about the GI50 (786-0 renal) of the same molecule?
A: 1620 nM

Q: And the TGI (786-0 renal)?
A: 3190 nM

Q: What about the GI50 (MDA-MB-435) of the same molecule?
A: 1670 nM

Q: What about the TGI (MDA-MB-435) of the same molecule?
A: 3080 nM

Q: And the GI50 (HS 578T breast)?
A: 1930 nM

Q: And the TGI (HS 578T breast)?
A: 4620 nM

Q: What about the GI50 (NCI-H23 lung) of the same molecule?
A: 1710 nM

Q: And the TGI (NCI-H23 lung)?
A: 3210 nM

Q: What about the GI50 (SK-OV-3 ovarian) of the same molecule?
A: 2690 nM

Q: And the TGI (SK-OV-3 ovarian)?
A: 6670 nM

Q: And the GI50 (SN12C renal)?
A: 1690 nM

Q: What about the TGI (SN12C renal) of the same molecule?
A: 3450 nM

Q: And the GI50 (LOX IMVI melanoma)?
A: 1690 nM

Q: What about the TGI (LOX IMVI melanoma) of the same molecule?
A: 3150 nM

Q: And the GI50 (K-562 leukemia)?
A: 2500 nM

Q: And the TGI (K-562 leukemia)?
A: 6510 nM

Q: And the GI50 (M14 melanoma)?
A: 1820 nM

Q: What about the TGI (M14 melanoma) of the same molecule?
A: 3450 nM

Q: What about the GI50 (PC-3 prostate) of the same molecule?
A: 1540 nM

Q: And the TGI (PC-3 prostate)?
A: 3000 nM

Q: And the GI50 (CCRF-CEM leukemia)?
A: 2680 nM

Q: And the TGI (CCRF-CEM leukemia)?
A: 8960 nM

Q: What about the GI50 (NCI-H460 lung) of the same molecule?
A: 1880 nM

Q: And the TGI (NCI-H460 lung)?
A: 3560 nM

Q: What about the GI50 (SF-268 CNS) of the same molecule?
A: 1580 nM

Q: And the TGI (SF-268 CNS)?
A: 3050 nM

Q: And the GI50 (UACC-62 melanoma)?
A: 1750 nM

Q: And the TGI (UACC-62 melanoma)?
A: 3230 nM
